Test results: US9464291B2, “Methods and compositions for the treatment of cancer” (University of South Alabama, priority 2012, dated 2016)
Entries after “also recorded” stand apart in the source; their conditions may differ.

What was measured:
[1] = system: OPN; experiment: OPN mRNA by qRT-PCR in metastatic melanoma cell lines; format: cell-based, human; conditions: MDA-MB-435
Method: This medium was replaced with fresh cyclopamine-containing medium after 12 h. […] RNA was assessed by real-time RT-PCR for OPN transcript levels.
Quantitative RT-PCR (qRT-PCR)-cDNA was generated using High Capacity Reverse Transcriptase Kit (Applied Biosystems, Foster City, Calif.). Real time PCR was performed using a Bio-Rad iQ5 Real-Time Detection system (Bio-Rad). All reactions were done as three independent replicates. All assays were done using the TaqMan Gene Expression Assays from Applied Biosystems. OPN (SPP1: Hs 00959010_m1) transcript levels were normalized to glyceraldehyde-3-phosphate dehydrogenase (Hs 99999905_m1) levels (δCT), which was used to calculate changes in OPN expression (2^−δδCT). […] GLI1 and SHH (Hs 00179843_m1) expressions were also similarly assessed with glyceraldehyde-3-phosphate dehydrogenase as an endogenous control. To analyze the knockdown effectiveness, “scrambled transfectants” of MDA-MB-435 was set as calibrator.

[2] = system: OPN; experiment: OPN regulation and GLI1 localisation in osteoblastic cells hFOB and MC3T3-E1; format: cell-based
Method: The role of the Hedgehog pathway in regulating the expression of OPN in the two osteoblastic cell lines, hFOB and MC3T3-E1 was assessed.
Quantitative RT-PCR (qRT-PCR)-cDNA was generated using High Capacity Reverse Transcriptase Kit (Applied Biosystems, Foster City, Calif.). Real time PCR was performed using a BioRad iQ5 Real-Time Detection system (Bio-Rad, Hercules, Calif.). All reactions were done in triplicate. OPN transcript levels were normalized to GAPDH levels (dCT) which was used to calculate changes in OPN expression (2-ddCT). […] The primers used included Spp1 (OPN) (Mm 00436767_m1); Bglap (osteocalcin) (Mm 01741771_g1); IBSP (Mm 00492555_m1); PTHrP (Mm 00433057_m1); RANKL (Mm 00441906_m1); GAPDH (Mm 99999915_g1).

[3] = system: RAW264.7 cells; experiment: Osteoclast differentiation, TRAP assay, RAW264.7; format: cell-based, murine
Method: Cell lines—Human metastatic breast cancer cells, MDA-MB-231, were cultured in Dulbecco's Modified Eagle's Medium (DMEM/F12; Invitrogen, Carlsbad, Calif.), supplemented with 2 mM L-glutamine, 1 mM sodium pyruvate, 0.02 mM non-essential amino acids, 5% fetal bovine serum, FBS (Atlanta Biologicals, Norcross, Ga.), without antibiotics or antimycotics (cDME/F12). SUM1315 and SUM159 cells (DiMeo, T. A., et al. (2009) Cancer Res 69, 5364-5373) (Asterand, Detroit, Mich.) were cultured in DMEM/F12 supplemented with […] insulin, 5% FBS (Atlanta Biologicals) and either 10 ng/ml EGF or 1 ng/ml hydrocortisone, without antibiotics or antimycotics. The SUM1315 cells are derived from a metastasis in a patient with infiltrating ductal carcinoma; SUM159 cells were derived from a primary breast tumor with metaplastic ccarcinoma. RAW264.7 (ATCC, TIB 71) cells, a murine pre-osteoclastic line capable of differentiation and mineralization in culture (in presence of RANKL and MCSF), were grown in DMEM with L-glutamine (ATCC, 30-2002) supplemented with 10% FBS. A 2× differentiation medium (DM) was formulated for the RAW 264.7 cells comprising RAW264.7 growth medium supplemented with 20% FBS, RANKL (100 ng/ml) and M-CSF (40 ng/ml) (Matsubara, T., et al. J Bone Miner Res 25, 1068-1076). Conditioned media was harvested from breast cancer cells and mixed in a 1:1 ratio with double strength differentiation medium to assess the effect on osteoclast differentiation. 1×DM was used as control or wherever SHH (R & D Systems, Minneapolis, Minn.) or OPN (R & D Systems) was used alone. The medium on the RAW264.7 cells was replenished every 48 hours. In order to assess the effect of secreted Hh ligands, the neutralizing 5E1 antibody was used (Developmental Studies Hybridoma Bank, at the University of Iowa, Iowa). The amount of 5E1 antibody used for the studies was determined following titration of the antibody with respect to its effects on osteoclast differentiation. Medium was supplemented with 5E1 (2.5 μg/ml) and was changed on alternate days until the end of the experiment. The effect of OPN on osteoclast activity was assessed by transfecting an OPN shRNA-expressing construct on day 6 post-induction of differentiation. Fresh DM was added the following day and cells were allowed to grow for another 12 hours before termination of experiment. GLI1 expression was silenced in the SUM1315 cells using shRNA targeting GLI1 into pSuperior. gfp+neo (Oligoengine, Wash., USA). […]
Osteoclast differentiation and activity assays—Tartarate-resistant acid phosphatase (TRAP) assay was conducted for RAW 264.7 following the manufacturer's protocol (Sigma, St. Louis, Mo.). […] The percentage of area resorbed was calculated using the NIS-Elements BR. […]

Row | Compound | rescue of OPN transcript levels from cyclopamine inhibition ([1]; cyclopamine 20 μM, recombinant SHH 100 nM) | OPN promoter activity ([2]; hFOB and MC3T3) | numbers of TRAP stained multinucleate cells ([3]; DM supplemented with SHH (100 nM) or OPN (100 ng/ml) vs DM alone) | OPN mRNA levels ([1]; MCC012A, MCC012F, cyclopamine 24 h) | OPN transcript levels ([2]; hFOB / pre-osteoblasts, cyclopamine) | GLI1 subcellular localisation ([2]; hFOB, cyclopamine 20 μM, 24 h) | osteoclast differentiation into TRAP-positive, multinucleate osteoclasts ([3]; DM + cyclopamine 20 μM) | ability of MDA-MB-435 conditioned medium to induce osteoclast differentiation ([3]; tumor cells treated with cyclopamine)
1 | SHH: recombinant Sonic hedgehog ligand (R & D Systems) | reverse and rescue the inhibitory effects of cyclopamine | stimulated the promoter of OPN; also recorded: upregulation in OPN promoter activity | significant (p<0.005) increase | – | – | – | – | –
2 | CC1=C2C[C@H]3[C@@H](CC=C4C[C@@H](O)CC[C@@]43C)[C@@H]2CC[C@]12O[C@@H]1C[C@H](C)CN[C@H]1[C@H]2C [cyclopamine] | – | – | – | decreases the levels of OPN mRNA | decreases OPN mRNA levels; also recorded: inhibited the transcription of OPN; also recorded: reduction in the levels of OPN transcript levels | keeps GLI1 sequestered in the cytosolic compartment | significantly (p<0.0001) reduced the ability of DM to elicit differentiation | significant reduction in this ability
